This is an account of results in ChEMBL document CHEMBL1129256, “Potent thrombin inhibitors that probe the S1 subsite: tripeptide transition state analogues based on a heterocycle-activated carbonyl group” (J Med Chem, 1996).

One assay concerns the target T1, Serine protease 1 (Bos taurus, UniProt P00760).
T1 sequence (P00760 whole entry): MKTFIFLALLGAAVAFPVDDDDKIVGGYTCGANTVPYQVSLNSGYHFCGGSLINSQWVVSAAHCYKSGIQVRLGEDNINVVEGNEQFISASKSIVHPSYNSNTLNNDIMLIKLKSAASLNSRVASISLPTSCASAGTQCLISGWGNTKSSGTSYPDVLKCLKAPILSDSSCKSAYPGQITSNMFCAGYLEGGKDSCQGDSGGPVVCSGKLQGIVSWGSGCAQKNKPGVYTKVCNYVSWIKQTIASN
Kind of assay: Inhibition of bovine trypsin.

The species entered for the next assay is Bos taurus. Kind of assay: Inhibition of trypsin, selectivity with respect to thrombin.
The next assay concerns the target Prothrombin (Homo sapiens, UniProt P00734). Kind of assay: Inhibition of human alpha-thrombin.
Assay [1] is described as follows: Compound was tested for inhibition of activated protein C. selectivity with respect to thrombin.
Assay [2] is described as follows: Compound was tested for inhibition of plasmin, selectivity with respect to thrombin.
A short description of assay [3]: Compound was tested for inhibition of streptokinase (SK). selectivity with respect to thrombin.
Assay [4] in a line: Compound was tested for inhibition of tissue-type plasminogen activator (tissue plasminogen activator), selectivity with respect to thrombin.

For `CN[C@H](Cc1ccccc1)C(=O)N1CCC[C@H]1C(=O)N[C@@H](CCCNC(=N)N)C(=O)c1ccccn1`, the Ki at Serine protease 1 came to 73 nM; on Prothrombin, 85 nM. Further, the Selectivity in the assay listed under Bos taurus worked out at 0.8.
In the case of `CN[C@H](Cc1ccccc1)C(=O)N1CCC[C@H]1C(=O)N[C@@H](CCCNC(=N)N)C(=O)c1nc2ccccc2[nH]1`, the inhibitory constant (Ki) is 38 nM at Serine protease 1 and 12 nM at Prothrombin.
The like results for `Cc1ccc(S(=O)(=O)N/C(N)=N\CCC[C@@H](NC(=O)[C@H]2CCCN2C(=O)[C@H](Cc2ccccc2)N(C)C(=O)OCc2ccccc2)C(O)c2nc3ccccc3s2)cc1` (some centres undefined) were, in that order, over 150000 nM and 16000 nM.
The like results for `CN[C@H](Cc1ccccc1)C(=O)N1CCC[C@H]1C(=O)N[C@@H](CCCNC(=N)N)C(=O)c1nccs1` were, in that order, 1.6 nM and 3.6 nM.
The matching figures for `CN[C@H](Cc1ccccc1)C(=O)N1CCC[C@H]1C(=O)N[C@@H](CCCNC(=N)N)C(=O)c1nc2c(s1)CCCC2`: 4.4 nM and 3.4 nM.
On to `CN[C@H](Cc1ccccc1)C(=O)N1CCC[C@H]1C(=O)N[C@@H](CCCN=C(N)N)C(=O)C1=NC(=O)C2C=CC=CC2=N1` (some centres undefined), for which the Ki was 8.2 nM at Serine protease 1 and 15 nM at Prothrombin. In the assay listed under Bos taurus, this molecule came in with a Selectivity of 0.6.
On to `CN[C@H](Cc1ccccc1)C(=O)N1CCC[C@H]1C(=O)N[C@@H](CCCN=C(N)N)C(=O)c1nc2ccccc2[nH]1`, for which the Selectivity in the assay listed under Bos taurus turned out to be 3.2.
As for `CN[C@H](Cc1ccccc1)C(=O)N1CCC[C@H]1C(=O)N[C@@H](CCCNC(=N)N)C(=O)c1nc2ccccc2n1C`, the values for the inhibition constant (Ki) at Serine protease 1 and on Prothrombin were 290 nM and 8.1 nM, respectively. Also, in the assay filed under Bos taurus, the Selectivity stood at 36.
Regarding `CN[C@H](Cc1ccccc1)C(=O)N1CCC[C@H]1C(=O)N[C@@H](CCCN=C(N)N)C(=O)c1nc2c(s1)CCCC2`, the Selectivity in the assay listed under Bos taurus was 1.3.
Take `CN[C@H](Cc1ccccc1)C(=O)N1CCC[C@H]1C(=O)N[C@@H](CCCN=C(N)N)C(=O)c1nc2ccccc2s1`: the Selectivity in assay [1] is 19000; in assay [2] it was 12000; in assay [3], 6300; in assay [4], 3300; in the assay listed under Bos taurus, 16. For the same molecule, the Ki on Prothrombin was 0.19 nM.
Regarding `CN[C@H](Cc1ccccc1)C(=O)N1CCC[C@H]1C(=O)N[C@@H](CCCN=C(N)N)C(=O)c1nc2ccccc2o1`, the results for the Ki at Serine protease 1 and at Prothrombin were 2.9 nM and 3.8 nM, respectively. This molecule also came in with a Selectivity in the assay listed under Bos taurus of 0.8.
As to `CN[C@H](Cc1ccccc1)C(=O)N1CCC[C@H]1C(=O)N[C@H](C=O)CCCNC(=N)N`, the Selectivity was determined as 72 in assay [1]; 33 in assay [2]; 170 in assay [3]; 130 in assay [4]; 0.39 in the assay listed under Bos taurus.
Turning to `Cc1ccc(S(=O)(=O)NC(=N)NCCC[C@H](NC(=O)[C@@H]2CCCN2C(=O)[C@@H](Cc2ccccc2)N(C)C(=O)OCc2ccccc2)C(O)c2nc3ccccc3s2)cc1` (some centres undefined), the Ki at Serine protease 1 was over 150000 nM; at Prothrombin it was 5300 nM.
Regarding `CN[C@H](Cc1ccccc1)C(=O)N1CCC[C@H]1C(=O)N[C@@H](CCCN=C(N)N)C(=O)c1nccs1`, the Selectivity in the assay filed under Bos taurus came out at 0.4.
As for `CN[C@H](Cc1ccccc1)C(=O)N1CCC[C@H]1C(=O)N[C@@H](CCCN=C(N)N)C(=O)c1nccn1C`, the inhibitory constant (Ki) was 4400 nM at Serine protease 1 and 50 nM at Prothrombin.
On to `CN[C@H](Cc1ccccc1)C(=O)N1CCC[C@H]1C(=O)N[C@@H](CCCNC(=N)N)C(=O)c1nccn1C`, for which the Selectivity in the assay filed under Bos taurus was 88.
